The target of the test is T1, C5AR1 (Homo sapiens, UniProt P21730).
T1 construct: host or cells: CHO-K1
T1 sequence (P21730 1-350): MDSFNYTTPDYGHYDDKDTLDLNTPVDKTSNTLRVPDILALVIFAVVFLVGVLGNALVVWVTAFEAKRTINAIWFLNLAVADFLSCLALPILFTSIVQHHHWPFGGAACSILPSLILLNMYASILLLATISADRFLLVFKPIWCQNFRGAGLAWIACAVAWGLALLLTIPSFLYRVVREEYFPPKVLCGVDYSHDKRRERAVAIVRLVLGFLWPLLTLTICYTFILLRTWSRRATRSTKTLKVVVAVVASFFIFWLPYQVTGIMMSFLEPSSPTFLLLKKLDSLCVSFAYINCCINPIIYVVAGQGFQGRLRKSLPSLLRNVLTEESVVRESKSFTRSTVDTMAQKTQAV
The test can be described thus: hC5a DISCO IC50 assay (PathHunter beta-arrestin, antagonist mode). It is filed as cell-based. The settings on record: CHO-K1 C5AR1 beta-arrestin cell line; antagonist vs 1-10 nM C5a agonist; geometric mean values; read-out: C5aR IC50. The gist of the method: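 Antagonist added first, then 1-10 nM C5a agonist; cells incubated 1.5 h at 37 °C. Beta-arrestin signal developed with PathHunter detection reagent, 45 min at RT. IC50 in nmol/l from serial antagonist dilutions, reported as geometric mean of several measurements.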
For the compound `COc1cccc2c1n(Cc1nccnc1C(F)(F)F)c(=O)n2[C@@H]1CCN(c2c(C)cccc2F)C1` [Example 167, 1-[(R)-1-(2-Fluoro-6-methyl-phenyl)-pyrrolidin-3-yl]-4-methoxy-3-(3-trifluoromethyl-pyrazin-2-ylmethyl)-1,3-dihydro-benzoimidazol-2-one], the IC50 amounted to 0.006 µM. Regarding `COc1cccc(C)c1N1CC[C@@H](n2c(=O)n(Cc3ccccc3C(F)(F)F)c3c(OC)nccc32)C1` [Example 51, 4-Methoxy-1-[(R)-1-(2-methoxy-6-methyl-phenyl)-pyrrolidin-3-yl]-3-(2-trifluoromethyl-benzyl)-1,3-dihydro-imidazo[4,5-c]pyridin-2-one], the IC50 came to 0.062 µM.

As for `COc1cccc2c1n(Cc1ccccc1OC1CCC1)c(=O)n2C1CCN(c2c(C)cccc2F)CC1` [Example 226, 3-(2-Cyclobutoxy-benzyl)-1-[1-(2-fluoro-6-methyl-phenyl)-piperidin-4-yl]-4-methoxy-1,3-dihydro-benzoimidazol-2-one], the IC50 worked out at 0.036 µM. Regarding `COc1cccc2c1n(Cc1ccccc1C(F)(F)F)c(=O)n2[C@@H]1CCN(c2c(N)cccc2F)C1` [Example 155, 1-[(R)-1-(2-Amino-6-fluoro-phenyl)-pyrrolidin-3-yl]-4-methoxy-3-(2-trifluoromethyl-benzyl)-1,3-dihydro-benzoimidazol-2-one], the IC50 is 0.015 µM. On to `COc1cccc2c1n(Cc1ccccc1OC1CC1)c(=O)n2C1CCN(c2c(C)cccc2F)CC1` [Example 209, 3-(2-Cyclopropoxy-benzyl)-1-[1-(2-fluoro-6-methyl-phenyl)-piperidin-4-yl]-4-methoxy-1,3-dihydro-benzoimidazol-2-one], for which the IC50 is 0.034 µM. As for `COc1cccc2c1n(Cc1cnccc1C(F)(F)F)c(=O)n2C1CCN(c2c(F)cccc2F)CC1` [Example 59, 1-[1-(2,6-Difluoro-phenyl)-piperidin-4-yl]-4-methoxy-3-(4-trifluoromethyl-pyridin-3-ylmethyl)-1,3-dihydro-benzoimidazol-2-one], the figure is 0.049 µM.

For the compound `COc1cccc2c1n(Cc1ccccc1C(F)(F)F)c(=O)n2C1CCN(C(=O)c2ccccc2)CC1` [Example 30, 1-(1-Benzoyl-piperidin-4-yl)-4-methoxy-3-(2-trifluoromethyl-benzyl)-1,3-dihydro-benzoimidazol-2-one], the IC50 was found to be 1.52 µM. As for `COc1cccc2c1n(Cc1ccccc1C(F)(F)F)c(=O)n2[C@@H]1CCN(c2c(C)c(C)nn2C)C1` [Example 85, 4-Methoxy-3-(2-trifluoromethyl-benzyl)-1-[(R)-1-(2,4,5-trimethyl-2H-pyrazol-3-yl)-pyrrolidin-3-yl]-1,3-dihydro-benzoimidazol-2-one], the figure is 0.712 µM; as for `COc1cccc2c1n(Cc1ccccc1C(F)(F)F)c(=O)n2C1CCN(c2c(C)cccc2F)CC1F` (stereo not drawn) [Example 211, 1-[3-Fluoro-1-(2-fluoro-6-methyl-phenyl)-piperidin-4-yl]-4-methoxy-3-(2-trifluoromethyl-benzyl)-1,3-dihydro-benzoimidazol-2-one], 0.027 µM. For the compound `COc1cccc2c1n(Cc1nnccc1C)c(=O)n2[C@@H]1CCN(c2c(C)cccc2F)C1` [Example 174, 1-[(R)-1-(2-Fluoro-6-methyl-phenyl)-pyrrolidin-3-yl]-4-methoxy-3-(4-methyl-pyridazin-3-ylmethyl)-1,3-dihydro-benzoimidazol-2-one], the IC50 came out at 0.544 µM. As to `COc1cccc(F)c1N1CC[C@@H](n2c(=O)n(Cc3ccccc3C(F)(F)F)c3c(OC)nccc32)C1` [Example 49, 1-[(R)-1-(2-Fluoro-6-methoxy-phenyl)-pyrrolidin-3-yl]-4-methoxy-3-(2-trifluoromethyl-benzyl)-1,3-dihydro-imidazo[4,5-c]pyridin-2-one], the IC50 was 0.132 µM. To `COc1ccccc1Cn1c(=O)n([C@@H]2CCN(c3c(F)cccc3F)C2)c2cccc(OC)c21` [Example 68, 1-[(R)-1-(2,6-Difluoro-phenyl)-pyrrolidin-3-yl]-4-methoxy-3-(2-methoxy-benzyl)-1,3-dihydro-benzoimidazol-2-one] belongs 0.084 µM. As to `COc1cccc2c1n(Cc1ccccc1C(F)(F)F)c(=O)n2[C@@H]1CCN(c2c(C#N)c(C)nn2C)C1` [Example 87, 5-{(R)-3-[4-Methoxy-2-oxo-3-(2-trifluoromethyl-benzyl)-2,3-dihydro-benzoimidazol-1-yl]-pyrrolidin-1-yl}-1,3-dimethyl-1H-pyrazole-4-carbonitrile], the IC50 was 0.629 µM.

Turning to `CCN(CCO)Cc1cccc(F)c1N1CC[C@@H](n2c(=O)n(Cc3ccccc3C(F)(F)F)c3c(OC)cccc32)C1` [Example 140, 1-[(R)-1-(2-{[Ethyl-(2-hydroxy-ethyl)-amino]-methyl}-6-fluoro-phenyl)-pyrrolidin-3-yl]-4-methoxy-3-(2-trifluoromethyl-benzyl)-1,3-dihydro-benzoimidazol-2-one], the IC50 is 1.03 µM. Take `CCCCOc1ccccc1N1CCC(n2c(=O)n(Cc3ccccc3C(F)(F)F)c3c(OC)cccc32)CC1` [Example 243, 1-[1-(2-Butoxy-phenyl)-piperidin-4-yl]-4-methoxy-3-(2-trifluoromethyl-benzyl)-1,3-dihydro-benzoimidazol-2-one]: the IC50 was 0.061 µM. As for `COc1cccc2c1n(Cc1ccccc1C(F)(F)F)c(=O)n2[C@@H]1CCN(C)C1` [Example 31, 4-Methoxy-1-((R)-1-methyl-pyrrolidin-3-yl)-3-(2-trifluoromethyl-benzyl)-1,3-dihydro-benzoimidazol-2-one], the figure is 3.45 µM. As for `CCCCOC(=O)N1CC[C@@H](n2c(=O)n(Cc3ccccc3C(F)(F)F)c3c(OC)cccc32)C1` [Example 62, (R)-3-[4-Methoxy-2-oxo-3-(2-trifluoromethyl-benzyl)-2,3-dihydro-benzoimidazol-1-yl]-pyrrolidine-1-carboxylic acid butyl ester], the figure is 0.099 µM. For `COc1ccnc2c1n(Cc1ccccc1C(F)(F)F)c(=O)n2[C@@H]1CCN(C(=O)OC(C)(C)C)C1` [Example 43, (R)-3-[7-Methoxy-2-oxo-1-(2-trifluoromethyl-benzyl)-1,2-dihydro-imidazo[4,5-b]pyridin-3-yl]-pyrrolidine-1-carboxylic acid tert-butyl ester], the half-inhibitory concentration (IC50) was 0.393 µM.

Turning to `COc1cccc2c1n(Cc1cncnc1C(C)C)c(=O)n2[C@@H]1CCN(c2c(C)cccc2F)C1` [Example 186, 1-[(R)-1-(2-Fluoro-6-methyl-phenyl)-pyrrolidin-3-yl]-3-(4-isopropyl-pyrimidin-5-ylmethyl)-4-methoxy-1,3-dihydro-benzoimidazol-2-one], the IC50 amounted to 0.014 µM. Consider `Cc1cccc(C)c1N1CC[C@@H](n2c(=O)n(Cc3ccccc3C(F)(F)F)c3c(NCCO)nccc32)C1` [Example 118, 1-[(R)-1-(2,6-Dimethyl-phenyl)-pyrrolidin-3-yl]-4-(2-hydroxy-ethylamino)-3-(2-trifluoromethyl-benzyl)-1,3-dihydro-imidazo[4,5-c]pyridin-2-one], for which the IC50 is 0.201 µM. As for `COc1cccc2c1n(Cc1ccccc1C(F)(F)F)c(=O)n2[C@@H]1CCN(c2c(F)cccc2C(C)N2CC(OC)C2)C1` (stereo partly drawn) [Example 163, 1-((R)-1-{2-Fluoro-6-[1-(3-methoxy-azetidin-1-yl)-ethyl]-phenyl}-pyrrolidin-3-yl)-4-methoxy-3-(2-trifluoromethyl-benzyl)-1,3-dihydro-benzoimidazol-2-one], the figure is 0.591 µM. For `COc1cccc2c1n(Cc1ccccc1C(F)(F)F)c(=O)n2C1CCN(c2ccccc2OC2CCOCC2)CC1` [Example 239, 4-Methoxy-1-{1-[2-(tetrahydro-pyran-4-yloxy)-phenyl]-piperidin-4-yl}-3-(2-trifluoromethyl-benzyl)-1,3-dihydro-benzoimidazol-2-one], the IC50 is 0.082 µM. To `COc1cccc2c1n(Cc1ccccc1C(F)(F)F)c(=O)n2C1CCCN(C(=O)OC(C)(C)C)CC1` (stereo not drawn) [Example 179, 4-[4-Methoxy-2-oxo-3-(2-trifluoromethyl-benzyl)-2,3-dihydro-benzoimidazol-1-yl]-azepane-1-carboxylic acid tert-butyl ester] belongs 0.122 µM. As to `COc1cccc2c1n(Cc1ccccc1OC(F)(F)F)c(=O)n2[C@@H]1CCN(C(=O)OC(C)(C)C)C1` [Example 20, (R)-3-[4-Methoxy-2-oxo-3-(2-trifluoromethoxy-benzyl)-2,3-dihydro-benzoimidazol-1-yl]-pyrrolidine-1-carboxylic acid tert-butyl ester], the IC50 is 0.036 µM. `COc1cccc2c1n(Cc1cnccc1C(F)(F)F)c(=O)n2[C@@H]1CCN(c2c(C)cccc2F)C1` [Example 203, 1-[(R)-1-(2-Fluoro-6-methyl-phenyl)-pyrrolidin-3-yl]-4-methoxy-3-(4-trifluoromethyl-pyridin-3-ylmethyl)-1,3-dihydro-benzoimidazol-2-one]: the IC50 is 0.006 µM. For the compound `Cc1cccc(C)c1N1CC[C@@H](n2c(=O)n(Cc3ccccc3C(F)(F)F)c3c(OCCO)cccc32)C1` [Example 52, 1-[(R)-1-(2,6-Dimethyl-phenyl)-pyrrolidin-3-yl]-4-(2-hydroxy-ethoxy)-3-(2-trifluoromethyl-benzyl)-1,3-dihydro-benzoimidazol-2-one], the IC50 was 0.03 µM. As for `COc1ncncc1Cn1c(=O)n(C2CCN(c3c(F)cccc3C#N)CC2)c2cccc(OC)c21` [Example 113, 3-Fluoro-2-{4-[4-methoxy-3-(4-methoxy-pyrimidin-5-ylmethyl)-2-oxo-2,3-dihydro-benzoimidazol-1-yl]-piperidin-1-yl}-benzonitrile], the figure is 2.24 µM.

The IC50 is the concentration needed to halve the response being measured.

The record behind these values is patent US11739070B2, “C5A receptor modulators” (IDORSIA PHARMACEUTICALS LTD, priority 2018, dated 2023).
